These are literature values, as cited in patent publication US7534787B2, “Method of treating diseases and conditions associated with an altered level of amyloid beta peptides and new enolcarboxamide compounds” (Boehringer Ingelheim International GmbH, priority 2004, dated 2009).

In this data set the test system is Aβ42. To be noted: according to table 3 of WO 01/78721.

For `CN1C(C(=O)Nc2ccccn2)=C(O)c2ccccc2S1(=O)=O` [piroxicam], the Aβ42 lowering activity result is on record as “do not lower or even increase the Aβ42 level”.

For `Cc1cc(NC(=O)C2=C(O)c3ccccc3S(=O)(=O)N2C)no1` [isoxicam], the Aβ42 lowering activity entry is listed as “do not lower or even increase the Aβ42 level”.
